Publication PMC3600304, “Inhibitors of Fatty Acid Synthesis Induce PPARα-Regulated Fatty Acid β-Oxidative Genes: Synergistic Roles of L-FABP and Glucose” (PPAR Research, 2013)

Legend:
L-FABP = target: T1, L-FABP (Rattus norvegicus, UniProt P02692); experiment: Displacement of L-FABP-bound NBD-stearic acid; type: binding
T1 construct: made in house
T1 sequence (P02692 1-127): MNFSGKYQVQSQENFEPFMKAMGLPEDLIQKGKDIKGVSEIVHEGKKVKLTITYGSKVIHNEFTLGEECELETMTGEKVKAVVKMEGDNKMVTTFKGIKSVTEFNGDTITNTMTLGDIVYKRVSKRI
Procedure: Advantage was taken of the fact that NBD-stearic acid bound to L-FABP (two ligand binding sites) as well as SCP-2 (single-ligand binding site) to design a NBD-stearic acid displacement assay that allowed determination of which fatty acid synthesis inhibitors or their CoA thioesters bound to these LCFA/LCFA-CoA binding proteins. Displacement of NBD-stearate from L-FABP and SCP-2 was determined by incubating L-FABP or SCP-2 (25 nM in 10 mM phosphate buffer) with NBD stearate (40 nM) for 12 min to obtain maximal fluorescence, followed by titration with increasing amount of ligand. From the displacement curve, the K i value was calculated as described. All experiments were carried out with a thermostated cuvette to maintain temperature at 24°C using a circulating water bath. ANS displacement assay was performed as described.

recombinant rat L-FABP = target: T2, recombinant rat L-FABP (Rattus norvegicus, UniProt P02692); experiment: L-FABP secondary structure by circular dichroism (CD); conditions: L-FABP 1 μM, ligand 10 μM
T2 construct: made in house
T2 sequence (P02692 1-127): T1 sequence (P02692 1-127)
Procedure: Circular dichroism (CD) spectra were obtained utilizing a JASCO J-815 CD spectrometer (JASCO Analytical Instruments, Easton, MD, USA). Each sample for CD analysis contained recombinant rat L-FABP (1 μM) in 10 mM potassium phosphate (pH 7.4) with or without ligand (10 μM). Samples were scanned from 190 to 250 nm using the following conditions: step resolution, 1 nm; bandwidth, 2 nm; sensitivity, 10 mdeg; scan rate, 50 nm/min; and time constant, 1 s. For each measurement, 10 scans were averaged, background-subtracted, smoothed using the Means-Movement smoothing method (convolution width, 5) and converted to mean residue molar ellipticity utilizing the Spectra Manager Version 2 software as supplied by the instrument manufacturer (Spectra Analysis Version 2.03.04, Build 5). The percentage composition of α-helices (regular, distorted, total), β-sheets (regular, distorted, total), turns, and unordered structures was determined utilizing the CDPro program as supplied by the instrument manufacturer using the SDP48 reference set (soluble + denatured protein). This program allows the percentage calculation of various secondary structures by three different methods: CDSSTR, CONTIN, and SELCON3. Statistical analysis was performed by one-way analysis of variance (ANOVA) combined with the Newman-Keuls multiple-comparisons posttest (GraphPad Prism Version 3.03, San Diego, CA, USA).

[1] = system: PPARα transcription of CPT1A, CPT2, ACOX1; experiment: rtPCR of CPT1A, CPT2, ACOX1 mRNA in wild-type mouse primary hepatocytes; type: cell-based; conditions: inhibitor 10 μg/mL, 5 hr
Procedure: (§1) Mouse hepatocytes were isolated from livers of male wild-type and L-FABP null mice as described. To study the effect of TOFA and C75 at different glucose levels, mouse hepatocytes were cultured overnight with DMEM/F-12 supplemented with 5% FBS. Cells were incubated with glucose-free DMEM supplemented with fatty acid-free BSA (40 μM), 100 nM insulin, 10 nM dexamethasone, and without (no inhibitor) or with the de novo fatty acid synthesis inhibitors C75 or TOFA (10 μg/mL) for 30 min (1 mL/well). Cells were incubated further for 5 hr with 6 or 20 mM glucose without or with the inhibitors.
Transcription of key enzymes in mitochondrial (CPT1A and CPT2) and peroxisomal (ACOX1) β-oxidation of long chain fatty acid (LCFA) was determined by rtPCR similarly as described. Briefly, the RNeasy mini kit from Qiagen Sciences (MD, USA) was used as per the manufacturer's instructions to isolate total RNA, which was then quantified spectrophotometrically. Quantitative real-time PCR was performed with an ABI PRISM 7000 Sequence Detection System (SDS) from Applied Biosystems (Foster City, CA, USA) to determine relative mRNA expression for CPT1A, CPT2, and ACOX1. The thermal protocol was as follows: 48°C for 30 min, 95°C for 10 min before the first cycle, 95°C for 15 sec, and 60°C for 60 sec, repeated 40 times. TaqMan One-Step Master Mix and Gene Expression Assays for mouse CPT1A (Mm 00550438_m1), CPT2 (Mm 00487202_m1), and ACOX1 (Mm 00443579_m1) were purchased from Applied Biosystems (Life Technologies, Carlsbad, CA, USA). Triplicates of each sample were analyzed with ABI PRISM 7000 SDS software (Applied Biosystems) to determine ΔCt relative to a positive control (18S housekeeping gene). The fold change in the abundance of CPT1A, CPT2, and ACOX1 mRNAs was determined in primary mouse hepatocytes treated with albumin (40 μM) in the absence and presence of lipid synthesis inhibitors (C75, TOFA, 10 μg/mL) in glucose-free DMEM medium supplemented with 100 nM insulin, 10 nM dexamethasone, and either 6 or 20 mM glucose. The comparative 2^−ΔΔCt calculation method was used as described in User Bulletin 2, ABI Prism 7000 SDS (Applied Biosystems), and earlier. Finally, protein levels of liver fatty acid binding protein (L-FABP), sterol carrier protein-2 (SCP-2), acyl CoA binding protein (ACBP), peroxisome proliferator activated receptor (PPARα), liver X receptor-α (LXRα), carbohydrate response element binding protein (ChREBP), and sterol response element binding protein (SREBP) were determined by western blotting as described.

[2] = system: mouse primary hepatocytes; experiment: Hepatocyte cytosolic glucose level; type: cell-based; conditions: for Cytosolic glucose / Fold increase of cytosolic glucose versus no inhibitor: inhibitor 10 μg/mL; for Fold increase of cytosolic glucose by inhibitor: high extracellular glucose (20 mM); for Fold increase of cytosolic glucose with increasing glucose from 6 to 20 mM: in the presence of inhibitor 10 μg/mL
Procedure: as §1
Hepatocytes were plated 2 × 10^5 per well in 12-well tissue culture plates (Becton Dickinson and Company, Franklin Lakes, NJ, USA). After incubation with culture medium containing TOFA or C75 with increasing glucose level as described previously, hepatocytes were washed quickly with a cold solution of MgCl2 (100 mM) with 0.1 mM phloretin [46]. Cells were scraped from the dishes with PBS plus protease inhibitor, and cells were broken open with a probe sonicator (Sonic Dismembrator 550, Fisher Scientific, Waltham, MA, USA). Samples were sedimented at 10,000 g, 4°C for 20 min. The supernatant was used for glucose analysis with the Amplite Glucose Quantitation Kit (AAT Bioquest, Inc. Sunnyvale, CA, USA) as instructed by the manufacturer. The number of cultured primary hepatocytes in each sample was calculated based on amount of protein (Bradford Assay, Sigma, St. Louis, MO, USA) compared with reference samples with a known number of hepatocytes. Cytosolic glucose concentration was calculated using 7.4 × 10^−12 liter/cell as volume of the hepatocytes.

SMILES | Ki (L-FABP; L-FABP 25 nM, NBD stearate 40 nM, 24°C, read-out: K i, displacing L-FABP-bound NBD-stearic acid) | Fluorescence of L-FABP-bound NBD-stearic acid decreasing to (L-FABP; at 650 nM TOFA) | Effect on L-FABP secondary structure (overall) (recombinant rat L-FABP) | Effect on proportion of all types of β-sheet of L-FABP (recombinant rat L-FABP) | Effect on proportion of α-helix of L-FABP (recombinant rat L-FABP) | Effect on turn structure of L-FABP (recombinant rat L-FABP) | Effect on unordered structure of L-FABP (recombinant rat L-FABP) | PPARα transcription of CPT1A, CPT2, ACOX1 (mRNA) ([1]; 6 mM glucose) | PPARα transcription of CPT1A, CPT2, ACOX1 (mRNA) ([1]; 20 mM glucose) | Cytosolic glucose ([2]; 6 mM glucose in medium) | Fold increase of cytosolic glucose versus no inhibitor ([2]; 6 mM glucose in medium) | Cytosolic glucose ([2]; 20 mM glucose in medium) | Fold increase of cytosolic glucose by inhibitor [2] | Fold increase of cytosolic glucose with increasing glucose from 6 to 20 mM [2] | Displacement of NBD-stearic acid bound to L-FABP (in words) (L-FABP)
CCCCCCCCCCCCCCOc1ccc(C(=O)O)o1 [TOFA, 5-tetradecyloxy-2-furancarboxylic acid] | 66 ± 3 nM | 40% | significantly altered | increased | did not alter | decreased | did not alter | neither TOFA nor C75 significantly altered | induced | 4 mM | ~ 2 fold | 20 mM | ~2 fold | ~5 fold | –
C=C1C(=O)OC(CCCCCCCC)C1C(=O)O (centres unmarked) [C75, 4-methylene-2-octyl-5-oxotetrahydrofuran-3-carboxylic acid] | – | – | did not alter | – | – | – | – | neither TOFA nor C75 significantly altered | induced | 4 mM | ~ 2 fold | 13 mM | ~2 fold | ~4 fold | weaker
